Data from US12195427B2, “MASP-2 inhibitors and methods of use” (priority 2018, dated 2025).
Counter-ions that a name gives are not always drawn.

Biological target: MASP-2 CCP2-SP (Homo sapiens (Human), UniProt O00187)
Experiment: MASP-2 co-crystallization, X-ray crystallography and structure analysis (H-bonds, van der Waals contacts);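 as to Ligand-pharmacophore element distance, pharmacophore element C2: distance from averaged pharmacophore element to bound ligand; missing value means element absent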;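 as to Ligand-pharmacophore element distance, pharmacophore element C3: distance from averaged pharmacophore element to bound ligand; missing value means element absent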;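 as to Ligand-pharmacophore element distance, pharmacophore element C4: distance from averaged pharmacophore element to bound ligand; missing value means element absent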;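 as to Ligand-pharmacophore element distance, pharmacophore element C5: distance from averaged pharmacophore element to bound ligand; missing value means element absent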
Design: van der Waals contact distance, MASP-2 HIS 483 atom CD2 / van der Waals contact distance, MASP-2 HIS 483 atom NE2 / van der Waals contact distance, SER 654 C to compound atom / van der Waals contact distance, SER 654 O to compound atom / van der Waals contact distance, TRP 655 C to compound atom / van der Waals contact distance, MASP-2 GLY 528 atom CA / van der Waals contact distance TRP 655 atom CZ3 / van der Waals contact distance TRP 655 atom N / van der Waals contact distance TRP 655 atom CE3 / van der Waals contact distance GLY 656 atom C / van der Waals contact distance GLY 656 atom CA / van der Waals contact distance GLY 656 atom O / van der Waals contact distance, MASP-2 TYR 607 atom CD1 / van der Waals contact distance, MASP-2 PRO 606 atom O / d(C3,CA1) / d(CA1,N1)2 / d(H4,O1) / d(H4,O2) / d(O1,O2) / d(CA1,O2) / d(CA6,O1) / d(CA6,O2) / d(CA1,C5) / d(O2,H3) / d(N2,C2) / d(CA5,N2) / d(N2,C4) / d(N2,C6) / d(N2,CA3) / d(N2,O3) / d(O4,H2): unit not given beside the values
Conditions: for Ligand-pharmacophore element distance, pharmacophore element C2 / Ligand-pharmacophore element distance, pharmacophore element C3 / Ligand-pharmacophore element distance, pharmacophore element C4 / Ligand-pharmacophore element distance, pharmacophore element C5 / Ligand-pharmacophore element distance, pharmacophore element C6 / Ligand-pharmacophore element distance, pharmacophore element C7 / Ligand-pharmacophore element distance, pharmacophore element CA1 / Ligand-pharmacophore element distance, pharmacophore element CA2 / Ligand-pharmacophore element distance, pharmacophore element CA3 / Ligand-pharmacophore element distance, pharmacophore element CA4 / Ligand-pharmacophore element distance, pharmacophore element CA5 / Ligand-pharmacophore element distance, pharmacophore element CA6: Table A4-1; for d(N2,C2) / d(N2,CA2) / d(O2,H3) / d(O2,N2): Table A5-2 pharmacophore distance, S3/S4 region; for a(O1, O2, H3) / a(O1, O2, N2) / a(O2, N2, C2) / a(O2, N2, CA2): Table A6-2 pharmacophore angle; for Pharmacophore torsion angle a(O1, O2, N2, CA2): Table A7-2
How it was run: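 First, CCP2-SP constructs with or without a 6His tag are produced in E. coli. Crystals are then soaked once or twice with inhibitor, cryoprotected in 20% glycerol or frozen directly, and diffracted at synchrotron beamlines. Phasing uses molecular replacement with parts of 1Q3X.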

[1] = Table A5-1 pharmacophore: distance between elements, S2/S1 region
[2] = Table A7-1, between pharmacophore elements of the bound compound
[3] = between pharmacophore elements of the bound compound

Chain of MASP-2 CCP2-SP (O00187 445-686): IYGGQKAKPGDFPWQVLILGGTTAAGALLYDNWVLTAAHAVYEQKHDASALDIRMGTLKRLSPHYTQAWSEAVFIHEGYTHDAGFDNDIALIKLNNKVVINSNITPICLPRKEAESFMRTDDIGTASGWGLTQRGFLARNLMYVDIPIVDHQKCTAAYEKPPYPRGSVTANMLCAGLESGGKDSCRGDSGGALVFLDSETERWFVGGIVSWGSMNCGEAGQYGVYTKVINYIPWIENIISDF
Chain of MASP-2 CCP2-SP (O00187 364-432 partner): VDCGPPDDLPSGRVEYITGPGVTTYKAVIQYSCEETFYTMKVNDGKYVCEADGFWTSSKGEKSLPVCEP

Cc1nc(N)ccc1CNC(=O)[C@H](C)NC(=O)[C@H]1C[C@@H](c2ccccc2)CCN1CCC(=O)O [compound 1411, 3-((2R,4S)-2-(((S)-1-(((6-Amino-2-methylpyridin-3-yl)methyl)amino)-1-oxopropan-2-yl)carbamoyl)-4-phenylpiperidin-1-yl)propanoic acid Trifluoroacetate salt]
H-bond distance to MASP-2 ARG 630 atom NE (Table A1 (H-Bonds), ARG 630 NE): 2.66
H-bond distance to MASP-2 ASP 627 atom OD2 (Table A1 (H-Bonds), ASP 627 OD2): 3.17
H-bond distance to MASP-2 GLY 656 atom N (Table A1 (H-Bonds), GLY 656 N): 3.07
H-bond distance to MASP-2 SER 628 atom O (Table A1 (H-Bonds), SER 628 O): 3.2
H-bond distance to MASP-2 SER 654 atom O (Table A1 (H-Bonds), SER 654 O): 3.06
H-bond distance to MASP-2 SER 657 atom O (Table A1 (H-Bonds), SER 657 O): 2.61
van der Waals contact distance, MASP-2 amino acid atom to compound atom (Table A2): 3.8
van der Waals contact distance, MASP-2 HIS 483 atom CD2 (Table A2-1): 3.51
van der Waals contact distance, MASP-2 HIS 483 atom NE2 (Table A2-1): 3.46
van der Waals contact distance, MASP-2 GLY 528 atom CA (Table A2-2): 3.85
van der Waals contact distance, MASP-2 PHE 529 atom CE1 (Table A2-3): 3.69
van der Waals contact distance, VAL 653 CG1 to compound atom (Table A2-11): 3.52
van der Waals contact distance TRP 655 atom CE3 (Table A2-13, MASP-2 TRP 655 CE3, compound atom in line below): 3.6
van der Waals contact distance TRP 655 atom CZ3 (Table A2-13, MASP-2 TRP 655 CZ3): 3.57
Ligand-pharmacophore element distance, pharmacophore element C2: 0.42
Ligand-pharmacophore element distance, pharmacophore element C3: 0.32
Ligand-pharmacophore element distance, pharmacophore element C4: 0
Ligand-pharmacophore element distance, pharmacophore element C5: 0
Ligand-pharmacophore element distance, pharmacophore element C6: 0
Ligand-pharmacophore element distance, pharmacophore element C7: 0
Ligand-pharmacophore element distance, pharmacophore element CA1: 0.71
Ligand-pharmacophore element distance, pharmacophore element CA2: 0.52
Ligand-pharmacophore element distance, pharmacophore element CA3: 0
Ligand-pharmacophore element distance, pharmacophore element CA4: 0
Ligand-pharmacophore element distance, pharmacophore element CA5: 0
Ligand-pharmacophore element distance, pharmacophore element CA6: 0
d(C3,CA1) [1]: 2.87
d(CA1,N1)2 [1]: 1.34
d(CA1,O1) [1]: 4.37
d(CA1,O2) [1]: 4.05
d(H4,O1) [1]: 4.34
d(H4,O2) [1]: 3.90
d(O1,O2) [1]: 3.50
d(N2,C2): 1.46
d(N2,CA2): 5.72
d(O2,H3): 4.13
d(O2,N2): 2.68
a(C3, CA1, O1) (Table A6-1 pharmacophore angle): 149.02
a(CA1, O1, O2) (Table A6-1 pharmacophore angle): 109.85
a(O1, O2, H4) (Table A6-1 pharmacophore angle): 130.04
a(N1, CA1, O1) b) (Table A6-1 pharmacophore angle, Methyl-amino-pyridine compounds): 173.43
a(O1, O2, H3): 142.75
a(O1, O2, N2): 140.47
a(O2, N2, C2): 130.32
a(O2, N2, CA2): 155.94
Pharmacophore torsion angle a(C3, CA1, O1, H4) [2]: 24.51
Pharmacophore torsion angle a(H4, O1, O2, H3) [2]: 55.16
Pharmacophore torsion angle a(H4, O1, O2, N2) [2]: 137.13
Pharmacophore torsion angle a(N1, CA1, O1, H4) [2]: −2.21
Pharmacophore torsion angle a(O1, H4, O2, CA1) [2]: −82.11
Pharmacophore torsion angle a(O1, O2, N2, C2) [2]: 117.46
Pharmacophore torsion angle a(O1, O2, N2, CA2) [3]: 127.52

C[C@H](NC(=O)[C@H]1C[C@@H](c2ccccc2)CCN1)C(=O)NCc1cc(Cl)ccc1O.Cl [1078_9]
Ligand-pharmacophore element distance, pharmacophore element C2: 0.67
Ligand-pharmacophore element distance, pharmacophore element C3: 0
Ligand-pharmacophore element distance, pharmacophore element C4: 0
Ligand-pharmacophore element distance, pharmacophore element C5: 0.46
Ligand-pharmacophore element distance, pharmacophore element C6: 0
Ligand-pharmacophore element distance, pharmacophore element C7: 0
Ligand-pharmacophore element distance, pharmacophore element CA1: 1.62
Ligand-pharmacophore element distance, pharmacophore element CA2: 0.56
Ligand-pharmacophore element distance, pharmacophore element CA3: 0
Ligand-pharmacophore element distance, pharmacophore element CA4: 0
Ligand-pharmacophore element distance, pharmacophore element CA5: 0
Ligand-pharmacophore element distance, pharmacophore element CA6: 0
d(CA1,C5) [1]: 3.11
d(CA1,O1) [1]: 4.31
d(CA1,O2) [1]: 4.77
d(CA1,O4) [1]: 2.74
d(H4,O1) [1]: 2.21
d(H4,O2) [1]: 2.49
d(O1,O2) [1]: 3.11
d(O4,H2) [1]: 0.98
d(N2,C2): 1.46
d(N2,CA2): 5.71
d(O2,H3): 3.06
d(O2,N2): 2.89
a(C5, CA1, O1) (Table A6-1 pharmacophore angle): 161.68
a(CA1, O1, O2) (Table A6-1 pharmacophore angle): 117.85
a(CA1, O4, H2) (Table A6-1 pharmacophore angle): 128.05
a(O1, CA1, O4) (Table A6-1 pharmacophore angle): 66.67
a(O1, O2, H4) (Table A6-1 pharmacophore angle): 97.24
a(O1, O2, H3): 142.04
a(O1, O2, N2): 146.14
a(O2, N2, C2): 119.45
a(O2, N2, CA2): 153.36
Pharmacophore torsion angle a(C5, CA1, O1, H4) [2]: 14.92
Pharmacophore torsion angle a(H4, O1, O2, H3) [2]: −116.62
Pharmacophore torsion angle a(H4, O1, O2, N2) [2]: −110.81
Pharmacophore torsion angle a(O1, H4, O2, CA1) [2]: −50.72
Pharmacophore torsion angle a(O1, O2, N2, C2) [2]: 144.64
Pharmacophore torsion angle a(O1, O2, N2, CA2) [3]: 146.06
